Measurements taken from patent US20090148506A1, “LIPOSOMAL FORMULATIONS COMPRISING SECONDARY AND TERTIARY AMINES AND METHODS FOR PREPARING THEREOF” (priority 2005, published 2009).
Entries after “also recorded” stand apart in the source; their conditions may differ.

Columns and labels:
Type in all cases: physicochemical
[1] = Liposomal drug loading (encapsulation) at 50° C., Sephadex G-50 spin column, UV assay; conditions: for liposomal encapsulation (result in words): 50° C. (FIG. 2); for increase of irinotecan/lipid molar ratio: TEA containing liposomes (FIG. 10); for irinotecan encapsulation efficiency: 50° C.
Method: The lipids were labeled with trace amounts of ^3H-cholesteryl hexadecyl ether, a non-exchangeable, non-metabolizeable lipid marker to allow liposome quantitation by scintillation counting. The solvent was evaporated under a stream of nitrogen and dried under vacuum for at least 4 hours. […] The mean size distribution of the resulting large unilamellar vesicles (80-120 nm) was determined using a Nicomp submicron particle sizer model 370 (Nicomp, Santa Barbara, Calif.). For irinotecan loading, the solutions of irinotecan were made by dissolving the drug either in water at 50° C. or in sucrose phosphate buffer (300 mM sucrose, 40 mM phosphate) at room temperature. When necessary, the pH of the solution was adjusted to the desired value using NaOH. The final concentration of irinotecan was 15 mM. […] The precipitate was isolated by centrifugation (12000 rpm, 15 min) and was solubilized with 2 mM EDTA in water. Similar preparations were employed for daunorubicin. For liposomal loading, the drug solution and the liposomes were incubated separately at 50° C. for approximately five minutes to equilibrate the temperature. […] Aliquots of 75 μl were applied to a Sephadex G-50 spin column. The columns were prepared by adding glass wool to a 1 ml syringe and Sephadex G-50 beads hydrated in sucrose phosphate buffer (300 mM sucrose, 40 mM phosphate, pH 7.0). The columns were packed by spinning at 290×g for 1 minute. Following addition of the sample to the column, the liposome fraction was collected in the void volume by centrifuging at 515×g for 1 minute. Aliquots of the spin column eluant and the pre-column solution were taken and analyzed by liquid scintillation counting to determine the lipid concentration at each time point. The irinotecan concentration in each liposomal fraction was determined using a UV-based assay. […] The samples were cooled to ambient temperature. The absorbance at 370 nm was measured and compared to a standard curve. The concentration of TEA was determined by HPLC.

[2] = Irinotecan loading into diethanolamine buffered liposomes at 50° C.; conditions: 100 mM copper gluconate/140 mM diethanolamine pH 7.0 inside, sucrose/phosphate/EDTA buffer outside, target drug to lipid ratio 0.1 (FIG. 13)
Method: DSPC, cholesterol and DSPG were weighed out into capped scintillation vials. DSPC was dissolved in chloroform at 60 mg/ml, cholesterol was dissolved in chloroform at 25 mg/ml, and DSPG was dissolved in chloroform:methanol:water (50/10/1) at 30 mg/ml. The lipids were then combined in the appropriate proportions. […] A stream of N2 gas, while heating the mixture, was used to remove solvent. The resulting lipid films were left under vacuum for a few minutes, then redissolved in chloroform. The drying process was then repeated, and the lipid films were allowed to dry on a vacuum pump for 4+hours. […] MLVs were extruded at 70° C. through two 100 nm filters for a total of eight passes without difficulty. The liposomes were then allowed to cool down to room temperature. Samples were buffer exchanged into 300 mM sucrose/20 mM phosphate/10 mM EDTA, pH 7.0 by tangential flow. […] Clinical material of Irinotecan was used for a Irinotecan stock. Drug and liposome samples were pre-heated separately at 50° C. for 5 minutes, then combined at t=0. […] Samples of the spun column eluant and the pre-column solution were counted by liquid scintillation counting to determine the lipid concentration at each time point. Irinotecan concentrations were determined using a UV assay. […] Irinotecan is quantitated by absorbance at 370 nm against a standard curve.

[3] = Lactone/carboxylate form of irinotecan in solution (FTIR, HPLC)
Text: FTIR measurements were made at room temperature in transmission mode using a Nicolet Nexus 870 spectrometer (Nicolet Instrument, Madison, Wis., USA) equipped with a liquid nitrogen-cooled mercury cadmium telluride detector. […] Inc. Buena, N.J.). The sample was dried with a stream of nitrogen and left overnight in a desiccator before recording the spectra. For each spectrum, 250 scans were co-added at a 4 cm^−1 resolution, using a Happ-Genzel apodization. Data analysis was done using the Grams AI software (Galactic Industries, Salem, N.H., USA). The second derivative of the spectra was performed to determine the frequency of the components of unresolved bands. Vibrational spectroscopy was used to further investigate the potential interaction between irinotecan and copper in free solution. […] Since irinotecan has several possible binding sites, tentative assignment of the bands of the spectra to its functional groups was performed in order to identify which group is involved in an interaction with copper gluconate/TEA. The C═O stretching absorption bands appear in the region of 1870-1540 cm^−1. The position of the carbonyl bands is affected by several factors including intermolecular and intramolecular hydrogen bonding. […] This conversion to the carboxylate form was confirmed by HPLC analysis. […]

## COc1cccc2c1C(=O)c1c(O)c3c(c(O)c1C2=O)C[C@@](O)(C(C)=O)C[C@@H]3O[C@H]1C[C@H](N)[C@H](O)[C@H](C)O1 [daunorubicin]
[1]; triethanolamine hydrochloride internal solution, pH 7.0
  liposomal encapsulation (result in words): successfully encapsulated
[1]; triethanolamine/sodium gluconate/HCl internal solution, pH 7.0
  liposomal encapsulation (result in words): successfully encapsulated

## CCc1c2c(nc3ccc(OC(=O)N4CCC(N5CCCCC5)CC4)cc13)-c1cc3c(c(=O)n1C2)COC(=O)[C@]3(O)CC [irinotecan]
[2]
  liposomal encapsulation (result in words): successfully encapsulated
[1]; TEA buffered internal solution pH 7.0, external phosphate buffer pH 7.0, 50° C. (FIG. 1)
  liposomal loading (result in words): successfully loaded
[1]; after 2 min at 50° C.
  increase of irinotecan/lipid molar ratio: 0.08 μmol irinotecan/μmol lipid
[1]; after 60 min at 50° C.
  increase of irinotecan/lipid molar ratio: 0.13 μmol irinotecan/μmol lipid
[1]; copper gluconate/TEA containing liposomes (100 mM copper gluconate/180 mM TEA, pH 7.0)
  irinotecan encapsulation efficiency: approximately 70%
[1]; intra-liposomal
  irinotecan concentration inside the liposomes upon encapsulation: > 50 mM
[1]; liposomes containing 10 mM sodium gluconate/180 mM TEA, pH 7.0
  irinotecan encapsulation efficiency: 70%
[1]; liposomes containing TEA/phosphate buffer (150 mM TEA, 95 mM phosphate, pH 7.0), 0.2:1 drug to lipid (mol:mol)
  irinotecan encapsulation efficiency: approximately 70%
[1]; liposomes containing copper gluconate adjusted to pH 7.0 with NaOH (no TEA)
  drug loading (result in words): negligible; also recorded: no loading
[1]; liposomes containing sucrose phosphate buffer (no TEA)
  drug encapsulation (result in words): no drug encapsulation
[1]; liposomes with 100 mM copper gluconate, TEA decreased to 90 mM, pH 7.0 (FIG. 11)
  reduction of the amount of drug loading: 50%
[1]; liposomes with 100 mM copper gluconate, TEA increased to 270 mM, pH 7.0 (FIG. 11)
  irinotecan encapsulation: approximately 90%
[3]; pH 7.0 (data not shown)
  form of irinotecan in solution: predominantly in its lactone form
[3]; pH 8.7, confirmed by HPLC
  form of irinotecan in solution: primarily in the carboxylate form
